Data published in patent publication US20100184955A1, “ANTICANCER PRODRUG SENSITIVE TO TARGET PROTEASE” (priority 2009, published 2010).

Tested on: HeLa cells
Assay: MTT cytotoxicity test in HeLa cells
Format: cell-based
Conditions: different concentrations, FIG. 4
Method: Each of Dox and albumin-peptide-Dox at different concentrations was added to HeLa cells and then a 3-(4,5-dimethylthiazol-2-yl)-2,5-diphenyltetrazolium bromide (MTT) assay was performed to evaluate cytotoxicity.

COc1cccc2c1C(=O)c1c(O)c3c(c(O)c1C2=O)C[C@@](O)(C(=O)CO)C[C@@H]3O[C@H]1C[C@H](N)[C@H](O)[C@H](C)O1 [Dox, doxorubicin]
cytotoxicity (MTT assay): the level of cytotoxicity was increased in proportion to the concentration
